{"source": "patent US9108983B2", "about": "“Pyrrole compounds, a process for their preparation and pharmaceutical compositions containing them” (LES LABORATOIRES SERVIER, priority 2013, dated 2015)", "key": {"Bcl-2 protein": {"molecular_target": "Bcl-2 protein (histag-Bcl-2, UniProtKB P10415) (Homo sapiens (Human), UniProt P10415)", "sequence (P10415 whole entry)": "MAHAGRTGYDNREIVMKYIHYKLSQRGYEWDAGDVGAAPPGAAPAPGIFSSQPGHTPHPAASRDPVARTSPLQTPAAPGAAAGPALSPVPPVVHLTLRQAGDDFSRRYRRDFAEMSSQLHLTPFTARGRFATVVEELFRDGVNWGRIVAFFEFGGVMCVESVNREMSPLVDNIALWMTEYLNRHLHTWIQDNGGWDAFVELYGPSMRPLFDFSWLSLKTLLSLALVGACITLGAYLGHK", "experiment": "Inhibition of Bcl-2 by the fluorescence polarisation technique", "type": "binding", "conditions": "incubation for 2 hours, read-out: IC50 (nM) Bcl-2 FP", "outline": "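Fluorescence polarisation competition: His-tagged Bcl-2 (2.50×10^−8 M final) with fluorescein-labelled peptide (1.00×10^−8 M final) in 10 mM Hepes, 150 mM NaCl, 0.05% Tween20, pH 7.4. Increasing compound concentrations were added. Polarisation was read after 2 h incubation.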"}, "[1]": {"tested_on": "RS4;11 leukaemia tumour line", "experiment": "In vitro cytotoxicity (Microculture Tetrazolium Assay)", "type": "cell-based", "conditions": "Homo sapiens, RS4-11, 48 h, RS4;11 cells, exposed for 48 hours, cell viability; read-out: IC50 (nM) MTT RS4;11", "protocol": "The cytotoxicity studies were carried out on the RS4;11 leukaemia tumour line.\nThe cells are distributed onto microplates and exposed to the test compounds for 48 hours.\nThe cell viability is then quantified by a colorimetric assay, the Microculture Tetrazolium Assay (Cancer Res., 1987, 47, 939-942)."}}, "note": "Structures can show the parent of a compound that is named as a salt.", "data": [{"smiles": "C[C@@H]1Cc2ccccc2CN1C(=O)c1cc2c(cc1-c1cc(C(=O)N(c3ccc(O)cc3)c3cnn(C)c3)c(CN3CCOCC3)n1C)OCO2", "note": "[Example 82, N-(4-Hydroxyphenyl)-1-methyl-5-(6-{[(3R)-3-methyl-3,4-dihydroisoquinolin-2(1H)-yl]carbonyl}-1,3-benzodioxol-5-yl)-N-(1-methyl-1H-pyrazol-4-yl)-2-(morpholin-4-ylmethyl)-1H-pyrrole-3-carboxamide]", "values": [{"measurement": "IC50", "setting": "Bcl-2 protein", "result": 19.5, "unit": "nM"}, {"measurement": "IC50", "setting": "[1]", "result": 427, "unit": "nM"}]}, {"smiles": "COc1cc(-c2cc(C(=O)N(c3ccc(O)cc3)c3cnn(C)c3)c(C)n2C)c(C(=O)N2Cc3ccccc3C[C@H]2CN2CCOCC2)cc1F", "note": "[Example 101, 5-(4-Fluoro-5-methoxy-2-{[(3S)-3-(morpholin-4-ylmethyl)-3,4-dihydroisoquinolin-2(1H)-yl]carbonyl}phenyl)-N-(4-hydroxyphenyl)-1,2-dimethyl-N-(1-methyl-1H-pyrazol-4-yl)-1H-pyrrole-3-carboxamide hydrochloride]", "values": [{"measurement": "IC50", "setting": "Bcl-2 protein", "result": 21.1, "unit": "nM"}, {"measurement": "IC50", "setting": "[1]", "result": 743, "unit": "nM"}]}, {"smiles": "Cc1c(C(=O)N(c2ccc(O)cc2)c2cnn(C)c2)cc(-c2cc(Cl)ccc2C(=O)N2Cc3ccccc3C[C@H]2CN2CC3(CCO3)C2)n1C", "note": "[Example 207, 5-(5-Chloro-2-{[(3S)-3-(1-oxa-6-azaspiro[3.3]hept-6-ylmethyl)-3,4-dihydroisoquinolin-2(1H)-yl]carbonyl}phenyl)-N-(4-hydroxyphenyl)-1,2-dimethyl-N-(1-methyl-1H-pyrazol-4-yl)-1H-pyrrole-3-carboxamide]", "values": [{"measurement": "IC50", "setting": "Bcl-2 protein", "result": 4.6, "unit": "nM"}, {"measurement": "IC50", "setting": "[1]", "result": 32.2, "unit": "nM"}]}, {"smiles": "COc1ccc(C(=O)N2Cc3ccccc3C[C@H]2CN2CCOCC2)c(-c2cc(C(=O)N(c3ccc(O)cc3)c3cnn(C)c3)c(C)n2C)c1", "note": "[Example 24, N-(4-Hydroxyphenyl)-5-(5-methoxy-2-{[(3S)-3-(morpholin-4-ylmethyl)-3,4-dihydroisoquinolin-2(1H)-yl]carbonyl}phenyl)-1,2-dimethyl-N-(1-methyl-1H-pyrazol-4-yl)-1H-pyrrole-3-carboxamide hydrochloride]", "values": [{"measurement": "IC50", "setting": "Bcl-2 protein", "result": 6.2, "unit": "nM"}, {"measurement": "IC50", "setting": "[1]", "result": 79.1, "unit": "nM"}]}, {"smiles": "Cc1c(C(=O)N(C)c2ccc(O)cc2)cc(-c2cc(CCNC(=O)NCc3ccccc3)ccc2C(=O)N2Cc3ccccc3C[C@H]2C)n1C", "note": "[Example 56, 5-(5-{2-[(Benzylcarbamoyl)amino]ethyl}-2-{[(3R)-3-methyl-3,4-dihydroisoquinolin-2(1H)-yl]carbonyl}phenyl)-N-(4-hydroxyphenyl)-N,1,2-trimethyl-1H-pyrrole-3-carboxamide]", "values": [{"measurement": "IC50", "setting": "Bcl-2 protein", "result": 75, "unit": "nM"}, {"measurement": "IC50", "setting": "[1]", "result": "> 600", "unit": "nM"}]}, {"smiles": "Cc1c(C(=O)N(c2ccc(O)cc2)c2cnn(C3CC3)c2)cc(-c2cc(Cl)ccc2C(=O)N2Cc3ccccc3C[C@H]2CN2CCOCC2)n1C", "note": "[Example 122, 5-(5-Chloro-2-{[(3S)-3-(morpholin-4-ylmethyl)-3,4-dihydroisoquinolin-2(1H)-yl]carbonyl}phenyl)-N-(1-cyclopropyl-1H-pyrazol-4-yl)-N-(4-hydroxyphenyl)-1,2-dimethyl-1H-pyrrole-3-carboxamide]", "values": [{"measurement": "IC50", "setting": "Bcl-2 protein", "result": 3.4, "unit": "nM"}, {"measurement": "IC50", "setting": "[1]", "result": 82.4, "unit": "nM"}]}, {"smiles": "CN1CCN(C[C@@H]2Cc3ccccc3CN2C(=O)c2ccc(Cl)cc2-c2cc(C(=O)N(c3ccc(O)cc3)c3ccc4c(ccn4C)c3)cn2C2CC2)CC1", "note": "[Example 7, 5-(5-Chloro-2-{[(3S)-3-[(4-methylpiperazin-1-yl)methyl]-3,4-dihydroisoquinolin-2(1H)-yl]carbonyl}phenyl)-1-cyclopropyl-N-(4-hydroxyphenyl)-N-(1-methyl-1H-indol-5-yl)-1H-pyrrole-3-carboxamide]", "values": [{"measurement": "IC50", "setting": "Bcl-2 protein", "result": 25.6, "unit": "nM"}, {"measurement": "IC50", "setting": "[1]", "result": 90.6, "unit": "nM"}]}, {"smiles": "CCNC(=O)NCc1ccc(-c2cc(C(=O)N(C)c3ccc(O)cc3)c(C)n2C)c(C(=O)N2Cc3ccccc3C[C@H]2C)c1", "note": "[Example 36, 5-(4-{[(Ethylcarbamoyl)amino]methyl}-2-{[(3R)-3-methyl-3,4-dihydroisoquinolin-2(1H)-yl]carbonyl}phenyl)-N-(4-hydroxyphenyl)-N,1,2-trimethyl-1H-pyrrole-3-carboxamide]", "values": [{"measurement": "IC50", "setting": "Bcl-2 protein", "result": 71.4, "unit": "nM"}, {"measurement": "IC50", "setting": "[1]", "result": "> 600", "unit": "nM"}]}, {"smiles": "Cc1c(C(=O)N(C)c2ccc(O)cc2)cc(-c2cc(CCNC(=O)Cc3ccccc3)ccc2C(=O)N2Cc3ccccc3C[C@H]2C)n1C", "note": "[Example 57, N-(4-Hydroxyphenyl)-N,1,2-trimethyl-5-(2-{[(3R)-3-methyl-3,4-dihydroisoquinolin-2(1H)-yl]carbonyl}-5-{2-[(phenylacetyl)amino]ethyl}phenyl)-1H-pyrrole-3-carboxamide]", "values": [{"measurement": "IC50", "setting": "Bcl-2 protein", "result": 80, "unit": "nM"}, {"measurement": "IC50", "setting": "[1]", "result": "> 600", "unit": "nM"}]}, {"smiles": "Cc1c(C(=O)N(c2ccc(O)cc2)c2cnc3c(ccn3C)c2)cc(-c2cc3c(cc2C(=O)N2Cc4ccccc4C[C@H]2C)OCO3)n1C", "note": "[Example 42, N-(4-Hydroxyphenyl)-1,2-dimethyl-5-(6-{[(3R)-3-methyl-3,4-dihydroisoquinolin-2(1H)-yl]carbonyl}-1,3-benzodioxol-5-yl)-N-(1-methyl-1H-pyrrolo[2,3-b]pyridin-5-yl)-1H-pyrrole-3-carboxamide]", "values": [{"measurement": "IC50", "setting": "Bcl-2 protein", "result": 5.2, "unit": "nM"}, {"measurement": "IC50", "setting": "[1]", "result": 4.36, "unit": "nM"}]}, {"smiles": "Cc1c(C(=O)N(c2ccc(O)cc2)c2ccc3c(c2)ncn3C)cc(-c2cc(Cl)ccc2C(=O)N2Cc3ccccc3C[C@H]2CN2CCOCC2)n1C", "note": "[Example 72, 5-(5-Chloro-2-{[(3S)-3-(morpholin-4-ylmethyl)-3,4-dihydroisoquinolin-2(1H)-yl]carbonyl}phenyl)-N-(4-hydroxyphenyl)-1,2-dimethyl-N-(1-methyl-1H-benzimidazol-5-yl)-1H-pyrrole-3-carboxamide]", "values": [{"measurement": "IC50", "setting": "Bcl-2 protein", "result": 7.7, "unit": "nM"}, {"measurement": "IC50", "setting": "[1]", "result": 43.6, "unit": "nM"}]}, {"smiles": "Cc1c(N(C(=O)c2cc(-c3cc(Cl)ccc3C(=O)N3Cc4ccccc4C[C@H]3CN3CCOCC3)n(C)c2C)c2ccc(O)cc2)cnn1C", "note": "[Example 432, 5-(5-Chloro-2-{[(3S)-3-(morpholin-4-ylmethyl)-3,4-dihydroisoquinolin-2(1H)-yl]carbonyl}phenyl)-N-(1,5-dimethyl-1H-pyrazol-4-yl)-N-(4-hydroxyphenyl)-1,2-dimethyl-1H-pyrrole-3-carboxamide hydrochloride]", "values": [{"measurement": "IC50", "setting": "Bcl-2 protein", "result": 3.4, "unit": "nM"}, {"measurement": "IC50", "setting": "[1]", "result": 76.6, "unit": "nM"}]}, {"smiles": "COc1ccc(C(=O)N2Cc3ccccc3C[C@H]2C)c(-c2cc(C(=O)N(c3ccncc3)c3ccc(O)cc3)c(C)n2C)c1", "note": "[Example 20, N-(4-Hydroxyphenyl)-5-(5-methoxy-2-{[(3R)-3-methyl-3,4-dihydroisoquinolin-2(1H)-yl]carbonyl}phenyl)-1,2-dimethyl-N-(pyridin-4-yl)-1H-pyrrole-3-carboxamide hydrochloride]", "values": [{"measurement": "IC50", "setting": "Bcl-2 protein", "result": 4.9, "unit": "nM"}, {"measurement": "IC50", "setting": "[1]", "result": 164, "unit": "nM"}]}, {"smiles": "CCn1cc(C(=O)N(c2ccc(O)cc2)c2ccc3c(ccn3C)c2)cc1-c1cc(Cl)ccc1C(=O)N1Cc2ccccc2C[C@H]1CN1CCN(C)CC1", "note": "[Example 6, 5-(5-Chloro-2-{[(3S)-3-[(4-methylpiperazin-1-yl)methyl]-3,4-dihydroisoquinolin-2(1H)-yl]carbonyl}phenyl)-1-ethyl-N-(4-hydroxyphenyl)-N-(1-methyl-1H-indol-5-yl)-1H-pyrrole-3-carboxamide]", "values": [{"measurement": "IC50", "setting": "Bcl-2 protein", "result": 25.2, "unit": "nM"}, {"measurement": "IC50", "setting": "[1]", "result": 69, "unit": "nM"}]}, {"smiles": "Cc1c(C(=O)N(c2ccccc2)c2ccc(O)cc2)cc(-c2cc3c(cc2C(=O)N2Cc4ccccc4C[C@H]2C)OCO3)n1CCN1CCOCC1", "note": "[Example 97, N-(4-Hydroxyphenyl)-2-methyl-5-(6-{[(3R)-3-methyl-3,4-dihydroisoquinolin-2(1H)-yl]carbonyl}-1,3-benzodioxol-5-yl)-1-[2-(morpholin-4-yl)ethyl]-N-phenyl-1H-pyrrole-3-carboxamide hydrochloride]", "values": [{"measurement": "IC50", "setting": "Bcl-2 protein", "result": 19, "unit": "nM"}, {"measurement": "IC50", "setting": "[1]", "result": 98, "unit": "nM"}]}, {"smiles": "Cc1c(C(=O)N(C)c2ccc(O)cc2)cc(-c2cc(CCNC(=O)Nc3ccccc3)ccc2C(=O)N2Cc3ccccc3C[C@H]2C)n1C", "note": "[Example 58, N-(4-Hydroxyphenyl)-N,1,2-trimethyl-5-(2-{[(3R)-3-methyl-3,4-dihydroisoquinolin-2(1H)-yl]carbonyl}-5-{2-[(phenylcarbamoyl)amino]ethyl}phenyl)-1H-pyrrole-3-carboxamide]", "values": [{"measurement": "IC50", "setting": "Bcl-2 protein", "result": 133, "unit": "nM"}, {"measurement": "IC50", "setting": "[1]", "result": "> 600", "unit": "nM"}]}, {"smiles": "CN1CCN(C[C@@H]2Cc3ccccc3CN2C(=O)c2cc3c(cc2-c2cc(C(=O)N(c4ccc(O)cc4)c4ccc5c(ccn5C)c4)cn2C)OCO3)CC1", "note": "[Example 9, N-(4-Hydroxyphenyl)-1-methyl-N-(1-methyl-1H-indol-5-yl)-5-(6-{[(3S)-3-[(4-methylpiperazin-1-yl)methyl]-3,4-dihydroisoquinolin-2(1H)-yl]carbonyl}-1,3-benzodioxol-5-yl)-1H-pyrrole-3-carboxamide hydrochloride]", "values": [{"measurement": "IC50", "setting": "Bcl-2 protein", "result": 22.4, "unit": "nM"}, {"measurement": "IC50", "setting": "[1]", "result": 87.5, "unit": "nM"}]}, {"smiles": "Cc1c(N(C(=O)c2cc(-c3cc(Cl)ccc3C(=O)N3Cc4ccccc4C[C@H]3CN3CCOCC3)n(C)c2)c2ccc(O)cc2)cc(C#N)n1C", "note": "[Example 415, 5-(5-Chloro-2-{[(3S)-3-(morpholin-4-ylmethyl)-3,4-dihydroisoquinolin-2(1H)-yl]carbonyl}phenyl)-N-(5-cyano-1,2-dimethyl-1H-pyrrol-3-yl)-N-(4-hydroxyphenyl)-1-methyl-1H-pyrrole-3-carboxamide hydrochloride]", "values": [{"measurement": "IC50", "setting": "Bcl-2 protein", "result": 3.8, "unit": "nM"}, {"measurement": "IC50", "setting": "[1]", "result": 29.9, "unit": "nM"}]}, {"smiles": "Cc1c(C(=O)N(c2ccc(O)cc2)c2cccc(C#N)c2)cc(-c2cc(F)ccc2C(=O)N2Cc3ccccc3C[C@H]2CN2CCOCC2)n1C", "note": "[Example 419, N-(3-Cyanophenyl)-5-(5-fluoro-2-{[(3S)-3-(morpholin-4-ylmethyl)-3,4-dihydroisoquinolin-2(1H)-yl]carbonyl}phenyl)-N-(4-hydroxyphenyl)-1,2-dimethyl-1H-pyrrole-3-carboxamide hydrochloride]", "values": [{"measurement": "IC50", "setting": "Bcl-2 protein", "result": 2.8, "unit": "nM"}, {"measurement": "IC50", "setting": "[1]", "result": 15.8, "unit": "nM"}]}]}
